Assay results published in patent publication US7201928B1, “Extracts of orange peel for prevention and treatment of cancer” (Rutgers, The State University of New Jersey, priority 1999, dated 2007).
Read-outs that look alike come from different tables or passages of the source.

Legend:
W138 (normal) cells = experiment: cell proliferation assay and morphology, normal cells; type: cell-based, human; details: for neutral β-galactosidase activity (staining), senescence marker: W138 cells; for effect on normal cell growth: crystal violet, 0, 1, 5, 10, 20 or 50 μg/ml
Method: (§1) In addition to testing for the activity of the complete orange peel extract, two of the identified extract components, tangeretin and nobeletin, were tested for their combined activity in a cell proliferation assay. The growth of W138 (normal) and W138VA (transformed) cells was tested in the presence of a mixture of tangeretin and nobeletin. The dye crystal violet was used for measuring growth of the cells. Cells were treated with either tangeretin alone (0, 1, 5, 10, 20 or 50 μg/ml), nobeletin alone (0, 1, 5, 10, 20 or 50 μg/ml) or a mixture of the two compounds at a total concentration of the two flavenoids of 0, 1, 5, 10, 20 or 50 μg/ml. […] The range of doses of the extract tested was 0, 1, 5, 10, 20 and 50 μg/ml.
(§2) W138 human diploid fibroblasts and cancerous SV40-transformed W138 cells (W138VA) were used in a cell proliferation assay. Growth rate and viability of these cells was determined following addition of resveratrol or one of its analogs. Doses tested ranged from 50 ng to 300 μg per ml or 1 μM to 100 μM concentrations in culture media. […] MR-1 was not active as an inhibitor of cell growth even at doses as high as 100 μM.
Treatment of W138 and W138VA cells with resveratrol and its analogs also led to morphological changes in the cells. Treatment of W138 cells with resveratrol and its analogs R-1 and R-3 led to elongation of normal W138 cells. Methoxy analogs such as MR-0 and MR-3 caused the flattening of W138 cells. This flattening was accompanied by an increase in neutral β-galactosidase activity as indicated by an increase in staining.

184-B5/HER cells = experiment: preclinical cell culture model for human ductal breast carcinoma in situ; type: cell-based; details: for cell cycle analysis: relative to solvent-treated control cultures
Method: Experiments were also performed in a preclinical cell culture model for human ductal breast carcinoma in situ (DCIS). The human breast-derived preneoplastic cell line 184-B5/HER expressed HER-2/neu, p53 and EGFR but not ER, therefore resembling the clinical DCIS. Initial dose-response experiments compared the growth inhibitory effect of orange peel extract on the parental 184-B5 cells and the HER-2/neu oncogene-expressing 184-B5/HER cells. […] Orange peel extract at the maximum cytostatic dose of 100 ppm accumulated the cells in the G0/G1 phase and inhibited the S+G2/M phase of the cell cycle, leading to down-regulation of cell cycle progression. […] Treatment of 184-B5/HER cells with 100 ppm orange peel extract induced a 7.6-fold increase in sub G0/G1 (apoptotic) population. Consistent with the induction of apoptosis, immunoreactivity to anti-apoptotic Bcl-2 was decreased by 33%.
Resveratrol and its analogs were also tested in preneoplastic 184-B5/HER human mammary epithelial cells.

W138 and W138VA cells = experiment: cell proliferation assay, cell line not specified for the result; type: cell-based, human
Method: as §1, §2

[1] = tested on: oncogene-expressing, preneoplastic breast epithelial cells; experiment: orthotransplant model, palpable tumor formation at transplant sites; details: AIN-76A diet supplemented with 400 ppm
Source text: Mice were transplanted with oncogene-expressing, preneoplastic breast epithelial cells. Mice were then divided into groups with the control group fed AIN-76A diet alone. Another group of mice was fed AIN-76A diet supplemented with MR-3 (400 ppm).

[2] = tested on: W138VA (transformed) cells; experiment: cell proliferation assay, transformed cells; type: cell-based, human; details: for inhibition of cell growth in transformed cells: crystal violet, 0, 1, 5, 10, 20 or 50 μg/ml
Method: as §1, §2

[3] = tested on: AOM-induced aberrant crypt foci (ACF); experiment: AOM-induced formation of aberrant crypt foci (colon cancer model); type: in vivo, Female CF-1 mice; details: 0.2% in diet
Method: The orange peel extract was then tested in an in vivo model for colon cancer. Female CF-1 mice were injected with azoxymethane (AOM) once a week for four weeks at increasing doses (5, 10, 10 and 10 mg/kg). Orange peel extract was administered in the diet (0.2%) starting two weeks before the first AOM injection, during and continuing until the end of the experiment at 24 weeks. At week 24, the mice were given one last dose of AOM (10 mg/kg). The mice were then sacrificed and their colons removed (from anus to caecum). The colons were opened longitudinally, rinsed with normal saline, and stapled to a plastic sheet. The colon samples were placed in a 10% neutral buffered formalin solution for 24 hours. The entire colon was stained with 0.2% methylene blue dissolved in phosphate buffered saline for 20 minutes. The whole mount of colon samples were then examined using light microscopy for the presence of aberrant crypt (AC) or aberrant crypt foci (ACF). Both ACF and AC are biomarkers for colon cancer. […] Mice fed nordihydroxyguaiaretic acid (NDGA) in the diet (0.2%) were used as controls.

AOM-induced colon tumors = experiment: AOM-induced colon tumorigenesis; details: 0.2% in AIN 76A diet + AOM
Method: In a similar experiment in the mouse colon cancer model, CF-1 mice were injected with AOM (5, 10, 10 and 10 mg/kg) starting at 6 weeks of age, once each week and then once at 37 weeks after the first dose of AOM. Throughout the treatment period, mice received either an AIN 76A diet or test compound in AIN 76A diet at 2 weeks before the first dose of AOM and continuing until the end of the experiment. The test compounds were NDGA (0.2%) and orange peel extract (0.2%). Colon samples were again obtained at sacrifice, stored in 10% formalin phosphate buffer, and then colon tumor number was determined.

[4] = read-out: concentration that inhibited growth by 50% (IC50), 184-B5/HER human mammary epithelial cells

Structure (SMILES): COc1ccc(C=Cc2cc(OC)cc(OC)c2)cc1 [MR-0, 3, 4′,5-trimethoxystilbene]
- morphological changes of W138 cells (W138 (normal) cells): flattening
- neutral β-galactosidase activity (staining), senescence marker (W138 (normal) cells): increase
- IC50 (184-B5/HER cells; [4]): 10.5 µM
- cell cycle analysis (184-B5/HER cells): progressive arrest of cells in the G2/M phase
- inhibition of cell growth (W138 and W138VA cells; tested 1 μM to 100 μM): inhibited cell growth

Structure (SMILES): COc1cc(C=Cc2ccccc2)cc(OC)c1 [MR-1, 3,5-dimethoxystilbene]
- activity as inhibitor of cell growth (W138 and W138VA cells; doses as high as 100 μM): not active

Structure (SMILES): COc1cc(C=Cc2ccc(OC)c(OC)c2)cc(OC)c1 [MR-2, 3,3′,4,5′-tetramethoxystilbene]
- IC50 (184-B5/HER cells; [4]): 120 µM
- cell cycle analysis (184-B5/HER cells): progressive arrest of cells in the G2/M phase

Structure (SMILES): COc1ccc(C=Cc2cc(OC)c(OC)c(OC)c2)cc1 [MR-3, 3,4,4′,5-tetramethoxystilbene]
- morphological changes of W138 cells (W138 (normal) cells): flattening
- growth of W138 cells (W138 (normal) cells; 1 μM): no effect
- neutral β-galactosidase activity (staining), senescence marker (W138 (normal) cells): increase
- IC50 (184-B5/HER cells; Homo sapiens, 184B5, read-out: concentration that inhibited growth by 50% (IC50)): 1 µM
- cell cycle analysis (184-B5/HER cells): progressive arrest of cells in the G2/M phase
- toxicity (weight gains comparable) ([1]; 12 weeks): little toxicity
- tumor incidence ([1]; 12 weeks of continuous feeding): 20%
- proliferation of W138VA cells ([2]; 1 μM): completely blocked proliferation

Structure (SMILES): COc1cc(C=Cc2cc(OC)cc(OC)c2)cc(OC)c1 [MR-4, 3,3′,5′5′-tetramethoxystilbene]
- growth of W138 cells (W138 (normal) cells; 100 μM): inhibited growth

Structure (SMILES): CC(Cc1ccc(O)c(O)c1)C(C)Cc1ccc(O)c(O)c1 (stereo not shown) [NDGA, nordihydroxyguaiaretic acid]
- AC/ACF ([3]; 24 weeks): 3.5
- AC/colon ([3]; 24 weeks): 9.4 ± 2.2
- ACF/colon ([3]; 24 weeks): 2.7 ± 0.9
- ACF: 1 AC/colon ([3]; 24 weeks): 6.8 ± 1.5
- ACF: 2 AC/colon ([3]; 24 weeks): 1.0 ± 0.3
- ACF: 3 AC/colon ([3]; 24 weeks): 0.2 ± 0.2
- ACF: 4 AC/colon ([3]; 24 weeks): 0
- ACF: 5 AC/colon ([3]; 24 weeks): 0
- ACF: 6 AC/colon ([3]; 24 weeks): 0
- ACF: 7 AC/colon ([3]; 24 weeks): 0
- inhibition of the number of ACF per colon ([3]; vs positive control): 48%
- inhibition of the ratio of AC/ACF ([3]; vs positive control): 51%
- Colon Tumors Per Mouse (AOM-induced colon tumors): 0.27 ± 0.14
- Percent Incidence (AOM-induced colon tumors): 27%

Structure (SMILES): Oc1cc(O)cc(C=Cc2ccccc2)c1 [R-1, 3,5-dihydroxystilbene]
- morphological changes of W138 cells (W138 (normal) cells): elongation

Structure (SMILES): Oc1ccc(C=Cc2cc(O)c(O)c(O)c2)cc1 [R-3, 3,4,4′,5-tetrahydroxystilbene]
- morphological changes of W138 cells (W138 (normal) cells): elongation
- inhibition of cell growth (W138 and W138VA cells; tested 1 μM to 100 μM): inhibited cell growth

Structure (SMILES): COc1ccc(-c2cc(=O)c3c(OC)c(OC)c(OC)c(OC)c3o2)cc1OC [nobeletin, 5,6,7,8,3′,4′-hexamethoxyflavone]
- effect on normal cell growth (W138 (normal) cells): no effect
- inhibition of cell growth in transformed cells [2]: only marginal effects

Structure (SMILES): Oc1ccc(C=Cc2cc(O)cc(O)c2)cc1 [resveratrol, reference compound]
- morphological changes of W138 cells (W138 (normal) cells): elongation
- concentration inhibiting cell growth (W138 and W138VA cells; tested 1 μM to 100 μM): less than 10 μM

Structure (SMILES): COc1ccc(-c2cc(=O)c3c(OC)c(OC)c(OC)c(OC)c3o2)cc1 [tangeretin, 5,6,7,8,4′-pentamethoxyflavone]
- effect on normal cell growth (W138 (normal) cells): no effect
- inhibition of cell growth in transformed cells [2]: only marginal effects
